Results as given in paper PMC3500524 (Cancer cell, 2012).
One block for each compound: values may come before it.

Key:
[1] = system: H1299 cells; assay: metabolism of H1299 cells under inhibitor treatment; type: cell-based, human
[2] = system: H1299 cells; assay: cell proliferation of H1299 cells; type: cell-based, human
[3] = system: diverse human cancer and leukemia cells; assay: cell proliferation / viability by trypan blue exclusion; type: cell-based
[4] = system: human dermal fibroblasts (HDF), human foreskin fibroblasts (HFF), HaCaT keratinocyte cells, melanocyte PIG1 cells; assay: cell proliferation / viability of normal proliferating human cells; type: cell-based
[5] = system: nude mice; assay: toxicity studies in nude mice; type: in vivo
[6] = system: H1299 xenograft; assay: H1299 xenograft in nude mice; type: in vivo, mouse
[7] = system: primary leukemia cells from human patients; assay: treatment of primary leukemia cells from human patients; type: cell-based
[8] = molecular target: purified human PGAM1 proteins (Homo sapiens, UniProt P18669); assay: PGAM1 enzyme assay; type: biochemical; details: comparison among alizarin and derivatives
purified human PGAM1 proteins, sequence (P18669 whole entry): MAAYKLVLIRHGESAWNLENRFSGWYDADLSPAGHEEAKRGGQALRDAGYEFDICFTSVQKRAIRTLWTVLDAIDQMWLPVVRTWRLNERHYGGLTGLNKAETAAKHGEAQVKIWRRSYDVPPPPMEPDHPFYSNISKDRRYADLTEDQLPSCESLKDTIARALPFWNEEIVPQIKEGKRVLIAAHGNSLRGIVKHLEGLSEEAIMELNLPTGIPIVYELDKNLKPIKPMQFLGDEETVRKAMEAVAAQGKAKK

[9] = molecular target: PGAM1 (Homo sapiens, UniProt P18669); details: intact cells, ref Evans et al., 2007, 2005; cited from earlier work
PGAM1, sequence (P18669 whole entry): as above

[10] = system: cancer cells; details: ref Engel et al., 2004; Evans et al., 2005; cited from earlier work
[11] = molecular target: T1, 6PGD (Homo sapiens, UniProt P52209); assay: thermal melt shift assay of 6PGD with ligand; type: binding; details: read-out: Kd for protein (6PGD)-ligand interaction
T1 sequence (P52209 1-483): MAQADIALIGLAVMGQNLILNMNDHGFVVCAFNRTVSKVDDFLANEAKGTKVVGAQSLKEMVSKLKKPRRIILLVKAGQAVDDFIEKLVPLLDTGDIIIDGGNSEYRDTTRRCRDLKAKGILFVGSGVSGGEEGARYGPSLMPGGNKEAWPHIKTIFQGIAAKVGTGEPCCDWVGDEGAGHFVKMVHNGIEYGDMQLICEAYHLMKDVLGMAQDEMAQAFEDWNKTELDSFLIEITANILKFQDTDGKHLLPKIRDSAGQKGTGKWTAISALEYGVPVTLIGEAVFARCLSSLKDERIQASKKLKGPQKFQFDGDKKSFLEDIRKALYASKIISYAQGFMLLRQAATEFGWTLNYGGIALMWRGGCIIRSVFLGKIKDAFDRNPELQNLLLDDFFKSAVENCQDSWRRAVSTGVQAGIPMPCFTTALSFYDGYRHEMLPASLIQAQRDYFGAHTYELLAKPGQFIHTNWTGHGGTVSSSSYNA

[12] = molecular target: T1, 6PGD; assay: in vitro 6PGD enzyme activity assay; type: biochemical; details: H1299 cell lysates or r6PGD
[13] = molecular target: G6PD (Homo sapiens, UniProt P11413); assay: in vitro G6PD enzyme activity assay; type: biochemical; details: increasing concentrations; H1299 cell lysates or rG6PD
G6PD, sequence (P11413 whole entry): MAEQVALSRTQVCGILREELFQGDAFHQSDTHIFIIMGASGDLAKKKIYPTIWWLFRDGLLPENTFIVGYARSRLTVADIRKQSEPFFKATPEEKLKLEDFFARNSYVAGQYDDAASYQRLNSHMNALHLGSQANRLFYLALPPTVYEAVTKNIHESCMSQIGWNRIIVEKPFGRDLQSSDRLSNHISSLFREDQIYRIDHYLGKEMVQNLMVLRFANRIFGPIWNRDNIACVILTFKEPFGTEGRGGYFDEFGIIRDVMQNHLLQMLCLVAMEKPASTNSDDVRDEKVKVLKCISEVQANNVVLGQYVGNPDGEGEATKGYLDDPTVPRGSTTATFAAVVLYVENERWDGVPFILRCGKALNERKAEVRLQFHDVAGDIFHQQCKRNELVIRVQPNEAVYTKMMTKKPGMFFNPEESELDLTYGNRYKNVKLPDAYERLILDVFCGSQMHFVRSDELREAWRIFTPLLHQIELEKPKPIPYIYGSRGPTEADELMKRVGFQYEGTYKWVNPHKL

[14] = molecular target: T1, 6PGD; assay: 6PGD enzyme kinetics
[15] = molecular target: T2, PHGDH (Homo sapiens, UniProt O43175); assay: PHGDH enzyme activity assay; type: biochemical
T2 sequence (O43175 1-533): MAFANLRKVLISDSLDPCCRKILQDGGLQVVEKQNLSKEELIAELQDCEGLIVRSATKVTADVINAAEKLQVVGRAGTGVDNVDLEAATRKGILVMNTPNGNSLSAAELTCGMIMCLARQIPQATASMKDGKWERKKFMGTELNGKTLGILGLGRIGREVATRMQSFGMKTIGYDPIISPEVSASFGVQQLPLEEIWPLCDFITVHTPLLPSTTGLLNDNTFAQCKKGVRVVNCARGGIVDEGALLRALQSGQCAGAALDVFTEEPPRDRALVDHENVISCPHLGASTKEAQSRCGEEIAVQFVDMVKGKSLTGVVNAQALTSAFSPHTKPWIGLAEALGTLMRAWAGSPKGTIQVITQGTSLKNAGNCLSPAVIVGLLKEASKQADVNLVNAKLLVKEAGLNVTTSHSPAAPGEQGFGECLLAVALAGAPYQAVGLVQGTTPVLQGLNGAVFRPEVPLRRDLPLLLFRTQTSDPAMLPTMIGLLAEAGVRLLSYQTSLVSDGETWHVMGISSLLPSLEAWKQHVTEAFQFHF

[16] = system: human leukemia KG1a cells; assay: proliferation of KG1a cells; type: cell-based; details: dose-dependent
[17] = primary leukemia cells, representative AML patient
[18] = samples from 7 (1 CML and 6 AML) out of 8 leukemia patients

SMILES: O=C1c2ccccc2C(=O)c2c1cc(S(=O)(=O)Nc1ccc(C(F)(F)F)cc1)c(O)c2O [PGMI-004A]
- 2-PG levels [1]: decreased 2-PG
- 3-PG levels [1]: increased 3-PG levels
- biosynthesis of RNA [1]: reduced biosynthesis
- biosynthesis of lipids [1]: reduced biosynthesis of lipids
- intracellular ATP levels [1]: no significant effect on intracellular ATP levels
- lactate production [1]: significantly reduced lactate production
- oxidative PPP flux [1]: decreased oxidative PPP flux
- cell proliferation [2]: reduced
- cell proliferation [3]: decreased cell proliferation
- non-specific toxicity (cell proliferation) in normal cells [4]: minimal non-specific toxicity
- histopathological analyses vs vehicle-treated group [5]: no notable differences
- tolerability of chronic injection ([5]; 100mg/kg/day intraperitoneally, 4 weeks): well-tolerated dose
- body weight, complete blood counts (CBC), hematopoietic properties ([5]; 100mg/kg/day, 7 days): did not result in significant alteration
- PGAM1 enzyme activity in resected tumors ([6]; 100mg/kg/day): effectively inhibits PGAM1 enzyme activity in tumors
- tumor growth and tumor size ([6]; 100mg/kg/day i.p., 21 days, vs vehicle): significantly decreased tumor growth and tumor size
- 2-PG levels [7, 17]: decreased 2-PG levels
- 3-PG levels [7, 17]: increased 3-PG
- PGAM1 activity [7, 18]: reduced PGAM1 activity
- cell viability [7, 18]: decreased cell viability
- lactate production [7, 18]: reduced

SMILES: C#CCCCC(=O)OC(C)(C)C1CCC2(CO2)C(OC(=O)NC(Cc2c[nH]c3ccccc23)C(=O)OCc2ccccc2)C1 (stereo not shown) [MJE3]
- PGAM1 activity [9]: specifically inhibits PGAM1 activity exclusively in intact cells
- cancer cell proliferation [10]: attenuates cancer cell proliferation

SMILES: O=C(O)[C@@H](CO)OP(=O)(O)O [2-PG, 2-phosphoglycerate]
- 6PGD enzyme activity ([12]; 2-PG): did not affect 6PGD enzyme activity
- PHGDH activity ([15]; 2-PG ~15μM): did not significantly affect PHGDH activity
- PHGDH enzyme activity ([15]; 2-PG ~45μM or ~60μM, H1299 PGAM1 knockdown cell lysates): higher PHGDH enzyme activity
- enzyme activity of recombinant PHGDH (rPHGDH) ([15]; increasing concentrations of 2-PG): increased enzyme activity of recombinant PHGDH

SMILES: O=C1c2ccccc2C(=O)c2c1ccc(O)c2O [alizarin, 1,2-dihydroxyanthraquinone]
- cell proliferation [16]: decreased proliferation

Continued, in another order:

- relative potency as PGAM1 inhibitor in vitro [8]: more potent PGAM1 inhibitor
SMILES: O=C1c2ccccc2C(=O)c2c1cc(S(=O)(=O)O)c(O)c2O [alizarin Red S]

- Kd [11]: 460 ± 40 µM
- 6PGD enzyme activity ([12]; 3-PG ~250μM): decreased enzyme activity of 6PGD
- mode of 6PGD inhibition ([14]; Lineweaver-Burk plot, 3-PG ~250μM, 6-PG ~35μM): competitive inhibitor of 6PGD
- Ki ([14]; read-out: inhibition constant (Ki) of 6PGD, Dixon plot): 489 ± 13 µM
SMILES: O=C(O)[C@H](O)COP(=O)(O)O [3-PG, 3-phosphoglycerate]
- 6PGD enzyme activity ([12]; 3-PG ~60μM): do not significantly affect 6PGD enzyme activity
- G6PD activity [13]: did not significantly affect G6PD activity
